Tested on: ATDC5 cells
Test: Wnt/β-catenin signaling, proliferation and differentiation in ATDC5 chondrogenic cells
Type: cell-based, mouse
Text: Cell culture and reagents. The mouse chondrogenic cell line, ATDC5, was obtained from the RIKEN Cell Batik. The human juvenile costal chondrocyte cell line, C28/I2, was provided by Dr. W. U. Kim (Catholic University, Korea). HEK293-TOP cells (HEK293 cells containing the chromosomally incorporated TOPFlash gene) were provided by Dr. S. Oh (Kuk Min University, Korea). ATDCS cells were maintained in DMEM/F12 (1:1) (Gibco, Grand Island, N.Y.) supplemented with 5% FBS (Gibco). To induce hypertrophic differentiation, ATDC5 cells were incubated with insulin-transferrin-sodium selenite (ITS) supplement (Gibco) in three-dimensional alginate beads for 3 days, as previously described. See e.g., Kawasaki Y. et al. (2008), Phosphorylation of GSK-3beta by cGMP-dependent protein kinase II promotes hypertrophic differentiation of murine chondrocytes. J CLIN INVEST 118: 2506-2515. C28/I2 and HEK293-TOP cells were maintained in DMEM (Gibco) containing 10% FBS. All chemicals were dissolved in dimethyl sulfoxide (DMSO; Sigma-Aldrich, St Louis, Mo.) for the in vitro studies. For E2 (17β-estradiol; Sigma-Aldrich) treatment, cells were cultured in phenol red-free DMEM/F12 with 5% charcoal-stripped FBS for 24 hours followed by serum-free medium for 24 hours before the experiment. The PTD-DBMP was synthesized by Peptide 2.0 Inc (Chantilly, Va.).
Immunocytochemistry. ATDCS or C28/I2 cells were seeded on glass coverslip in 12-well culture plates. The cells were washed with PBS and fixed with 4% PFA at room temperature for 15 minutes. After permeabilization with 0.1% triton-X-100 for 15 minutes and blocking with 5% BSA for 1 hour, the cells were incubated with primary antibodies specific for β-catenin (1:100) or CXXC5 l (1:200) at 4° C. overnight. The cells were washed in PBS and incubated with Alexa Fluor 488 or Alexa Fluor 555 secondary antibodies (1:200) at room temperature for 1 hour. Cell nuclei were counterstained with DAPI for 10 minutes and the stained samples were examined under a LSM700 META microscope using 405-, 488-, or 543-nm excitation wavelengths. For BrdU assay, cultured cells were incubated with BrdU solution (25 μM) overnight, followed by immunocytochemical staining with antibody against BrdU (1:100).
Immunoblot analyses. […] Protein samples were separated on a 8-12% sodium dodecylsulfate polyacrylamide gel electrophoresis (SDS-PAGE) and transferred to a nitrocellulose membrane (Whatman). Immunoblotting was performed with the following primary antibodies: anti-β-catenin (Santa Cruz Biotechnology, Santa Cruz, Calif., sc-7199; 1:3,000), anti-CXXC5 (lab made;1:200) anti-Myc tag (MBL, Aichi, Japan, M192-3; 1:1,000), anti-FLAG (Sigma-Aldrich, F7425; 1:1,000), anti-p-GSK3β (S9; Cell Signaling Technology, Danvers, Mass., 9336S; 1:1,000), anti-COL2A1 (Santa Cruz Biotechnology, sc-28887; 1:500), anti-RUNX2 (Abcam, ab23981; 1:500), anti-COLIOAI (Cosmo Bio, LSL-LB-0092; 1:500), anti-MMP13 (Santa Cruz Biotechnology, sc-30073; 1:500), anti-ERK (Santa Cruz Biotechnology, sc-94; 1:3,000) and anti-α-tubulin (Cell Signaling Technology, 3873S; 1:20,000). Samples were then incubated with horseradish-peroxidase-conjugated anti-mouse (Cell Signaling Technology, 7076; 1:3,000), anti-rabbit (Bio-Rad, 1706515; 1:3,000), or anti-goat (Santa Cruz Biotechnology; sc-2020; 1:3,000) secondary antibodies. Protein bands were visualized with enhanced chemiluminescence (ECL; Amersham Bioscience, Piscataway, N.J.) using a luminescent image analyzer, LAS-3000 (Fujifilm, Tokyo, Japan). Immunoblot bands were analyzed using Multi-Gauge V3.0 software (Fujifilm). Points of interest (POIs) from immunoblot bands were marked and quantified using densitometry, and the background signals were subtracted from respective immunoblot signals. Relative densitometry values were presented as the intensity ratios of each protein to loading control protein (α-tubulin or ERK).
Immunoprecipitation. Immunoprecipitation was performed as previously described (Kim et al, 2015). […]

[1] = ATDC5 cells, 0.01 or 0.1 μM, 4 hours, FIG. 12

## CO/N=C1/C(=C2/C(=O)Nc3cc(Cl)c(Cl)cc32)Nc2ccccc21 [KY19382, 5,6-dichloroindirubin-3′-methoxime]
0.01 or 0.1 μM, 48 hours, FIG. 11A
  number of BrdU-positive ATDC5 cells: enhanced number
ATDC5 cells, 0.1 μM, 4 hours, FIG. 4F
  CXXC5-DVL interaction, immunoprecipitation: interruption of the CXXC5-DVL interaction
ATDC5 cells, 0.1 μM, 48 hours, FIG. 4G
  nuclear translocation of β-catenin: elevated
ATDC5 cells, 0.1 μM, 3 days, alginate beads, FIG. 11B
  mRNA levels of chondrogenic markers: upregulated
[1]
  expression levels of Wnt/β-catenin target genes (Fosl1, Wisp1, Axin2): markedly increased
  off-target effects: 19 other genes that respond to other pathways, mRNA: not significantly altered
ATDC5 cells, 24 hours, FIG. 4E
  β-catenin level with inactivation of GSK3β, immunoblot: increment of β-catenin

From patent US20210323918A1, “COMPOSITIONS AND METHODS FOR SUPPRESSING AND/OR TREATING A GROWTH RELATED DISEASE AND/OR A CLINICAL CONDITION THEREOF” (CK Biotech Inc., priority 2018, published 2021)
